Values joined by “and” are separate entries in the source; they are usually repeats but may differ in a detail not shown here. Equal entries are not always repeated.
How the values were obtained:
patients [1] = experiment: Frontal EEG spectral analysis during sevoflurane and propofol general anesthesia (patients, Sedline monitor); type: in vivo, human; details: mean±std
Source text: (§1) The power spectral density, also referred to as the power spectrum or spectrum, quantifies the frequency distribution of energy or power within a signal. The spectrogram is a time-varying version of the spectrum. […] In these spectrograms, frequencies are arranged along the y-axis, and time along the x-axis, and power is indicated by color on a decibel (dB) scale. […] Spectra and spectrograms were computed using the multitaper method, implemented in the Chronux toolbox (http://chronux.orq). The multitaper method was chosen specifically because it allows the spectral resolution to be set precisely, which is desirable in observing many anesthesia-related phenomena. Moreover, for a particular choice of spectral resolution, the multitaper method offers lower bias and lower variance than traditional nonparametric spectral estimation methods.
(§2) Group-level spectrograms were computed by taking the median across volunteers. Spectra were also calculated for selected EEG epochs. The resulting spectra were then averaged for all epochs, and 95% confidence intervals were computed via taper-based jackknife techniques. The spectral analysis parameters included window length T=4 s with 0 s overlap, time-bandwidth product TW=3, number of tapers K=5, and spectral resolution 2 W of 1.5 Hz. Peak power, and its frequency, was estimated for the dex-spindle, travelling peak, and frontal alpha oscillations for each individual subject. Averages across subjects were performed to obtain the group-level peak power and frequency for these oscillations.
(§3) To compare spectral and coherence estimates between groups, jackknife-based methods were used, namely the two-group test for spectra (TGTS), and the two-group test for coherence (TGTC), as implemented by the Chronux toolbox (http://www.chronukorg). This method accounts for the underlying spectral resolution of the spectral and coherence estimates, and considers differences to be significant if they are present for contiguous frequencies over a range greater than the spectral resolution 2 W. Specifically, for frequencies f>2 W, the null hypothesis was rejected only if the test statistic exceeded the significance threshold over a contiguous frequency range ≧2 W. For frequencies 0≦f≦2 W, to account for the properties of multitaper spectral estimates at frequencies close to zero, the null hypothesis was rejected only if the test statistic exceeded the significance threshold over a contiguous frequency range from 0 to max(f,W)≦2 W. A significance threshold of p<0.05 was selected for within group comparisons and p<0.001 for between group comparisons, applying a Bonferonni correction for multiple comparisons where appropriate.

patients [2] = experiment: Frontal EEG coherence analysis during sevoflurane and propofol general anesthesia (patients, Sedline monitor); type: in vivo, human
volunteers [3] = details: for frequency range of increased power in the spectrogram compared to baseline: sedation, visually evident
Source text: as §1, §2, §3
Volunteers were instructed to close their eyes throughout the study to avoid eye-blink artifacts in the EEG. Volunteers were presented with auditory stimuli during the study and asked to respond by button presses to assess the level of conscious behavior. The stimuli consisted of the volunteer's name presented every two minutes. Button-press stimuli were recorded using a custom-built computer mouse with straps fitted to hold the first and second fingers in place over the mouse buttons. The mouse was also lightly strapped to the subject's hand using tape and an arterial line board to ensure that responses could be recorded accurately.
We applied an anti-aliasing filter and down-sampled the EEG data to 250 Hz before analysis. EEG signals were re-montaged to a nearest-neighbor Laplacian reference, using distances along the scalp surface to weigh neighboring electrode contributions. First, 2-minute EEG segments were selected from all subjects during the awake, eyes closed baseline. Eye closure facilitates distinguishing between normal awake, eyes-closed occipital alpha oscillations and the frontal alpha oscillations associated with anesthesia induced altered arousal. EEG data segments were selected based on the behavioral response.

volunteers [4] = details: for frequency range of increase in coherence on the coherogram compared to baseline: sedation
patient = details: anesthetized with ketamine alone or in combination with other anesthetic agents; cited from earlier work
[5] = system: dopaminergic arousal pathway; experiment: Methylphenidate-induced emergence from isoflurane general anesthesia; plethysmography and blood gas experiments; type: in vivo
Source text: MPH can be used to restore consciousness, induce electroencephalogram changes consistent with arousal, and increase respiratory drive. The behavioral and respiratory effects induced by methylphenidate can be inhibited by droperidol, supporting the evidence that methylphenidate induces arousal by activating a dopaminergic arousal pathway.

[6] = general anesthesia, P<0.001 TGTC
[7] = propofol-induced unconsciousness
[8] = propofol-induced unconsciousness, dexmedetomidine sedation
[9] = dexmedetomidine sedation, propofol-induced unconsciousness
[10] = dexmedetomidine sedation, mean±std

For `FCOC(C(F)(F)F)C(F)(F)F` [sevoflurane], the “alpha oscillation peak frequency (EEG power)” value (patients [1]) was 9.2 Hz, the “alpha oscillation peak power” value (patients [1]) was 4.3 dB and the “alpha oscillation coherence peak frequency” value (patients [2]; general anesthesia) was 9.8 Hz. For the same compound, the “theta coherence peak frequency” value (patients [2]; general anesthesia) was 4.9 Hz, the theta peak coherence (patients [2]; general anesthesia) was 0.58±0.1 and the “frequency range in which sevoflurane exhibited increased EEG coherence versus propofol” value (patients [2]; [6]) was 3.41-10.7 Hz. For the same compound, the “frequency at which maximum power and coherence of coherent alpha oscillations occur” value (patients [2]; general anesthesia, summary) was 10-12 Hz, the “frequency of coherent theta oscillations” value (patients [2]; sevoflurane anesthesia) was about 5 Hz and the “alpha oscillation peak coherence” value (patients [2]; sevoflurane general anesthesia) was 0.73±0.1.
In the case of `CC(C)c1cccc(C(C)C)c1O` [propofol], the “frontal alpha oscillations power” value (volunteers [3]; [7]) is reported as 2.5 dB, the “size of slow oscillations compared with dexmedetomidine sedation” value (volunteers [3]; [7]) is reported as “almost an order of magnitude larger” and the slow oscillations power (volunteers [3]; [8]) is reported as 19.2 dB. The “frequency range of increased power in the spectrogram compared to baseline” value (volunteers [3]) was 1-25 Hz, the “alpha oscillation peak frequency (EEG power)” value (patients [1]) was 10.3 Hz and the “alpha oscillation peak power” value (patients [1]) was 2.1 dB. The “frequency range in which coherence was higher during propofol-induced unconsciousness than dexmedetomidine sedation” value (volunteers [4]; P<0.0005 TGTC) was 9.5-11.7 Hz, the “frequency ranges in which coherence was larger during propofol-induced sedation than dexmedetomidine sedation” value (volunteers [4]; P<0.0005 TGTC) was 19.8-26.4 Hz and 26.9-29.3 Hz and the “frequency range of decrease in coherence on the coherogram compared to baseline” value (volunteers [4]; [9]) was 0.1-1 Hz. For the same compound, the “frequency range of decreased slow oscillation coherence versus baseline” value (volunteers [4]; propofol peak max (unconsciousness), P<0.025 TGTC) was 0.1-1.7 Hz, the “coherence peak frequency (traveling-peak)” value (volunteers [4]; propofol sedation) was 16.1 Hz and the “peak coherence (traveling-peak)” value (volunteers [4]; propofol sedation) was 0.69±0.05. The “alpha oscillation peak coherence” value (volunteers [4]; [7]) was 0.85±0.05, the “centre of the narrow band of alpha oscillation coherence” value (volunteers [4]; [7]) was about 10 Hz and the “frequency range of significant increase in coherence versus baseline” value (volunteers [4]; propofol-induced unconsciousness, P<0.025 TGTC) was 4-15.9 Hz. The “frequency range of increase in coherence on the coherogram compared to baseline” value (volunteers [4]) was 1-25 Hz, the “alpha oscillation coherence peak frequency” value (patients [2]; general anesthesia) was 10.2 Hz and the “frequency range in which propofol exhibited increased EEG coherence versus sevoflurane” value (patients [2]; [6]) was 11.7-19.5 Hz. The “alpha oscillation peak coherence” value (patients [2]; propofol general anesthesia) was 0.71 dB.
For `Cc1cccc([C@H](C)c2cnc[nH]2)c1C` [dexmedetomidine], the “frequency range in which EEG power was lower than baseline” value (volunteers [3]; dexmedetomidine sedation, P<0.05 TGTS) was 17.4-40 Hz, the “dex-spindle oscillation peak frequency (EEG power)” value (volunteers [3]; [10]) was 13.1 Hz and ~13 Hz and the “dex-spindle oscillation peak power” value (volunteers [3]; [10]) was −10.2 dB. For the same compound, the “frequency at which maximum power and coherence of spindles occur” value (volunteers [3]; dexmedetomidine sedation, summary) was 13-14 Hz, the slow oscillations power (volunteers [3]; [8]) was 1.8 dB and the “frequency range of increased power in the spectrogram compared to baseline” value (volunteers [3]) was 2-15 Hz. For the same compound, the “coherence peak frequency (dex-spindle)” value (volunteers [4]; dexmedetomidine sedation) was 13.3 Hz, the “peak coherence (dex-spindle)” value (volunteers [4]; dexmedetomidine sedation) was 0.78±0.08 and the “frequency range of decrease in coherence on the coherogram compared to baseline” value (volunteers [4]; [9]) was 0.1-1 Hz. For the same compound, the “frequency range of increase in coherence on the coherogram compared to baseline” value (volunteers [4]) was 1-15 Hz.
For `CNC1(c2ccccc2Cl)CCCCC1=O` (centres unmarked) [ketamine], the BIS values (patient) is listed as “high BIS values”.
In the case of `COC(=O)C(c1ccccc1)C1CCCCN1` (centres unmarked) [methylphenidate], the “emergence from general anesthesia” value ([5]; isoflurane general anesthesia) is reported as “actively induces emergence from isoflurane general anesthesia” and the minute ventilation ([5]; plethysmography and blood gas experiments) is reported as “increases minute ventilation”.

— patent publication US20140316217A1, “SYSTEM AND METHOD FOR MONITORING ANESTHESIA AND SEDATION USING MEASURES OF BRAIN COHERENCE AND SYNCHRONY” (priority 2013, published 2014)
